# Where “and” joins values, the source holds several entries; their conditions need not be identical. Equal values may be shown once.
# Test system: LAT1
# Experiment: not given
# Conditions: Xenopus laevis oocytes; cited from earlier work
row,SMILES,Km [µM]
1,"N[C@@H](Cc1ccccc1)C(=O)O [Compound 50, L-phenylalanine, reference compound]",14.2
2,"N[C@H](Cc1ccccc1)C(=O)O [Compound 50-D, D-Phe]",121

# Biological target: T1, human LAT1 (Homo sapiens, UniProt Q01650)
# Experiment: cis-inhibition assay: inhibition of [3H]-gabapentin uptake into HEK-hLAT1 cells
# Format: cell-based
# Conditions: L vs D isomer
# T1 sequence (Q01650 whole entry): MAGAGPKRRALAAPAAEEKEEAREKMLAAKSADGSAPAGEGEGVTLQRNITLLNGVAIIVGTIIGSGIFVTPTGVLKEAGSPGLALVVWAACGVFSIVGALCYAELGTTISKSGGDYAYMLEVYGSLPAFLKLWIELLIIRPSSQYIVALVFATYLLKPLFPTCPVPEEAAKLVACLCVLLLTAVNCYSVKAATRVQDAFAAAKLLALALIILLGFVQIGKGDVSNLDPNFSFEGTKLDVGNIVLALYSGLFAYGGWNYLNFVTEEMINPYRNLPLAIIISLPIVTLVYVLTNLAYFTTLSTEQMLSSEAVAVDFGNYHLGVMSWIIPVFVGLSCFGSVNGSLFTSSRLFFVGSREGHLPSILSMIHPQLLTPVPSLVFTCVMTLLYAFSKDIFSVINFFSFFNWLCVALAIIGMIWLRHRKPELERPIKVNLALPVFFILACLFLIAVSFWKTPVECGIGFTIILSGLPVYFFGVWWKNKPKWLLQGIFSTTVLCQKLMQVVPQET
# T1 sequence (P08195 102-630 partner): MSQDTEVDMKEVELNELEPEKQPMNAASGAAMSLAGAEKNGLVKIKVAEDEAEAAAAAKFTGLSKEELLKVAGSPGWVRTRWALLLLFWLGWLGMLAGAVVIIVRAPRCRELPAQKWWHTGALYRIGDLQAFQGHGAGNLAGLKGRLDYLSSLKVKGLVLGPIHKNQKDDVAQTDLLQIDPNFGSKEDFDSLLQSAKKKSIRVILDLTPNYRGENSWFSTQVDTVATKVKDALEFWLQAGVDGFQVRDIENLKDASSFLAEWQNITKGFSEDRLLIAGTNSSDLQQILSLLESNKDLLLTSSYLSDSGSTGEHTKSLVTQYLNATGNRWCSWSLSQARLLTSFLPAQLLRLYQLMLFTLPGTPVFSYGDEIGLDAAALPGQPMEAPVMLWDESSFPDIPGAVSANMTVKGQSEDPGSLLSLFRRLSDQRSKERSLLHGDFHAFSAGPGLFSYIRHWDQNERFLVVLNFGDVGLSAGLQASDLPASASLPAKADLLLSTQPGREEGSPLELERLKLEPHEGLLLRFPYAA
row,SMILES,selectivity for the L isomers in cis-inhibition assay [fold]
1,"N[C@@H](Cc1c[nH]cn1)C(=O)O [Compound 53, L-histidine]",> 20
2,"CC[C@H](C)[C@H](N)C(=O)O [Compound 47, L-Ile]",> 20
3,"CC(C)[C@H](N)C(=O)O [Compound 49, L-Val]",> 20

# Same assay, conditions: cis-inhibition
row,SMILES,LAT1 ligand potency / affinity (in words)
1,N[C@@H](Cc1cccc(-c2ccccc2)c1)C(=O)O [Compound 70],the most potent ligands
2,N[C@@H](Cc1cccc(Cc2ccccc2)c1)C(=O)O [Compound 69],the most potent ligands

# Biological target: T1, human LAT1
# Experiment: not given
# Format: cell-based
# Conditions: 200 μM, 3 min; average of seven experiments
row,SMILES,efflux rate of [3H]-gabapentin
1,"N[C@@H](Cc1ccccc1)C(=O)O [Compound 50, L-phenylalanine, reference compound]",2.7 fmol/min and 2.7 ± 0.3 fmol/min

# Same assay, conditions: based on trans-stimulation assay
row,SMILES,LAT1 substrate activity (in words)
1,CSCC[C@@](N)(Cc1ccccc1)C(=O)O [Compound 98-D],lost all activity
2,N[C@@H](Cc1cccc(C(=O)OCCO)c1)C(=O)O [Compound 82],substrates of LAT1
3,N[C@@](Cc1ccccc1)(Cc1c[nH]cn1)C(=O)O [Compound 107],inactive
4,COC(=O)c1cccc(C[C@@H](N)C(=O)O)c1 [Compound 79-D],potentially not a substrate
5,"N[C@@H](CCC(=O)O)C(=O)O [Compound 57, L-Glu, reference compound]",none of which were LAT1 substrates
6,"CC(N)(Cc1ccccc1)C(=O)O (stereo in doubt) [Compound 92-D, α-methyl phenylalanine]",substrates
7,CC(C)(C)OC(=O)c1cccc(C[C@H](N)C(=O)O)c1 [Compound 81],substrates of LAT1
8,NC(Cc1ccccc1)(Cc1ccccc1)C(=O)O [Compound 93],inactive
9,N[C@@H](Cc1cccc(C(=O)O)c1)C(=O)O [Compound 83],LAT1 substrates
10,"C[C@](N)(Cc1ccccc1)C(=O)O [Compound 92, α-methyl phenylalanine]",substrates
11,N[C@@H](Cc1cccc(CC(=O)O)c1)C(=O)O [Compound 84],nonsubstrates
12,NCc1cccc(C[C@H](N)C(=O)O)c1 [Compound 74],LAT1 substrates
13,"N[C@@H](Cc1cn(Cc2ccccc2)cn1)C(=O)O [Compound 59, benzyl histidine]",substrates
14,COC(=O)c1cc(C)cc(C[C@H](N)C(=O)O)c1 [Compound 63],lost activity relative to their parent compounds
15,"NCCCC[C@H](N)C(=O)O [Compound 55, L-Lys, reference compound]",none of which were LAT1 substrates
16,Cc1cc(C[C@H](N)C(=O)O)cc(C(=O)O)c1 [Compound 64],lost activity relative to their parent compounds
